Results from ChEMBL document CHEMBL1201862, “PubChem BioAssay data set” (2004).
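These data come from cells grown in 96-well plates and exposed to compound for 48 hours at five concentrations. GI50: concentration for 50% inhibition of growth.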 The source made the active and inactive calls. No stated cut-off is given here; in the data, active = GI50 up to about 1.1 µM and inactive = higher.

How the values were obtained:
Assay in all cases: DTP human tumour cell line panel, 48 h
[1] = system: SF-268
[2] = system: SF-539
[3] = system: HOP-92
[4] = system: OVCAR-5
[5] = system: MCF7
[6] = system: IGROV-1
[7] = system: MDA-N
[8] = system: PC-3
[9] = system: NCI-H23
[10] = system: UO-31
[11] = system: UACC-62
[12] = system: SN12C
[13] = system: SK-MEL-5
[14] = system: K562
[15] = system: HCC 2998
[16] = system: SW-620
[17] = system: OVCAR-8
[18] = system: TK-10
[19] = system: CCRF-CEM
[20] = system: DU-145
[21] = system: 786-0
[22] = system: SR
[23] = system: SNB-19
[24] = system: MDA-MB-231
[25] = system: ACHN
[26] = system: HCT-15
[27] = system: HL-60
[28] = system: MDA-MB-435
[29] = system: A549
[30] = system: HCT-116
[31] = system: U-251
[32] = system: HOP-62
[33] = system: Hs-578T
[34] = system: NCI-H460
[35] = system: M14
[36] = system: NCI-H226
[37] = system: A498
[38] = system: T47D
[39] = system: COLO 205
[40] = system: NCI/ADR-RES
[41] = system: SK-MEL-2
[42] = system: SNB-75
[43] = system: SK-OV-3
[44] = system: RPMI-8226
[45] = system: MOLT-4
[46] = system: SK-MEL-28
[47] = system: LOX IMVI
[48] = system: HT-29
[49] = system: OVCAR-4
[50] = system: CAKI-1
[51] = system: OVCAR-3
[52] = system: Malme-3M
[53] = system: EKVX
[54] = system: SF-295
[55] = system: UACC-257
[56] = system: RXF 393
[57] = system: NCI-H522
[58] = system: BT-549
[59] = system: KM12

## CCn1nc(-c2ccccc2)c2c1N(C)c1ccccc1-n1c(-c3ccccc3)nnc1-2
[1]
  GI50: 16.1 µM (inactive)
[2]
  GI50: 22.5 µM (inactive)
[3]
  GI50: 16.3 µM (inactive)
[4]
  GI50: 19.4 µM (inactive)
[5]
  GI50: 5.45 µM (inactive)
[6]
  GI50: 19.9 µM (inactive)
[7]
  GI50: 15.1 µM (inactive)
[8]
  GI50: 13.2 µM (inactive)
[9]
  GI50: 14 µM (inactive)
[10]
  GI50: 14.2 µM (inactive)
[11]
  GI50: 12.8 µM (inactive)
[12]
  GI50: 16.4 µM (inactive)
[13]
  GI50: 9.25 µM (inactive)
[14]
  GI50: 17.1 µM (inactive)
[15]
  GI50: 15.9 µM (inactive)
[16]
  GI50: 16.1 µM (inactive)
[17]
  GI50: 20.9 µM (inactive)
[18]
  GI50: 16 µM (inactive)
[19]
  GI50: 18.8 µM (inactive)
[20]
  GI50: 16.1 µM (inactive)
[21]
  GI50: 16.3 µM (inactive)
[22]
  GI50: 14.4 µM (inactive)
[23]
  GI50: 15.9 µM (inactive)
[24]
  GI50: 13.4 µM (inactive)
[25]
  GI50: 13.5 µM (inactive)
[26]
  GI50: 10.4 µM
[27]
  GI50: > 10 µM (inactive)
[28]
  GI50: > 100 µM (inactive)
[29]
  GI50: 13.3 µM (inactive)
[30]
  GI50: 13.1 µM (inactive)
[31]
  GI50: 15 µM (inactive)
[32]
  GI50: 17.9 µM (inactive)
[33]
  GI50: 19 µM (inactive)
[34]
  GI50: 14.3 µM (inactive)
[35]
  GI50: 16 µM (inactive)
[36]
  GI50: 17.2 µM (inactive)
[37]
  GI50: 1.46 µM (inactive)
[38]
  GI50: 4.63 µM (inactive)
[39]
  GI50: 19.7 µM (inactive)
[40]
  GI50: 14.9 µM (inactive)
[41]
  GI50: 17.3 µM (inactive)
[42]
  GI50: 3.69 µM (inactive)
[43]
  GI50: 18.9 µM (inactive)
[44]
  GI50: 9.68 µM (inactive)
[45]
  GI50: > 10 µM (inactive)
[46]
  GI50: 17.7 µM (inactive)
[47]
  GI50: 16.6 µM (inactive)

## O=C1CCC(Cc2ccc(Cl)cc2Cl)C(=O)N1 (stereo not drawn)
[1]
  GI50: 82.4 µM (inactive)
[48]
  GI50: > 100 µM (inactive)
[2]
  GI50: > 100 µM (inactive)
[3]
  GI50: > 100 µM (inactive)
[4]
  GI50: > 100 µM (inactive)
[5]
  GI50: > 100 µM (inactive)
[6]
  GI50: > 100 µM (inactive)
[8]
  GI50: > 100 µM (inactive)
[9]
  GI50: > 100 µM (inactive)
[10]
  GI50: 83.6 µM (inactive)
[11]
  GI50: > 100 µM (inactive)
[12]
  GI50: > 100 µM (inactive)
[13]
  GI50: > 100 µM (inactive)
[14]
  GI50: > 100 µM (inactive)
[16]
  GI50: > 100 µM (inactive)
[17]
  GI50: > 100 µM (inactive)
[18]
  GI50: > 100 µM (inactive)
[19]
  GI50: > 100 µM (inactive)
[49]
  GI50: > 100 µM (inactive)
[20]
  GI50: > 100 µM (inactive)
[21]
  GI50: > 100 µM (inactive)
[22]
  GI50: > 100 µM (inactive)
[23]
  GI50: > 100 µM (inactive)
[24]
  GI50: 51.8 µM (inactive)
[25]
  GI50: > 100 µM (inactive)
[26]
  GI50: 82.8 µM
[50]
  GI50: > 100 µM (inactive)
[51]
  GI50: > 100 µM (inactive)
[27]
  GI50: > 100 µM (inactive)
[28]
  GI50: > 100 µM (inactive)
[52]
  GI50: > 100 µM (inactive)
[29]
  GI50: > 100 µM (inactive)
[30]
  GI50: > 100 µM (inactive)
[31]
  GI50: > 100 µM (inactive)
[32]
  GI50: > 100 µM (inactive)
[33]
  GI50: 81.5 µM (inactive)
[34]
  GI50: > 100 µM (inactive)
[53]
  GI50: 65 µM (inactive)
[54]
  GI50: > 100 µM (inactive)
[35]
  GI50: > 100 µM (inactive)
[36]
  GI50: > 100 µM (inactive)
[55]
  GI50: > 100 µM (inactive)
[38]
  GI50: 80.4 µM (inactive)
[39]
  GI50: > 100 µM (inactive)
[40]
  GI50: > 100 µM (inactive)
[56]
  GI50: 32 µM (inactive)
[57]
  GI50: 66.7 µM (inactive)
[41]
  GI50: > 100 µM (inactive)
[42]
  GI50: 64.6 µM (inactive)
[43]
  GI50: > 100 µM (inactive)
[58]
  GI50: 28.6 µM (inactive)
[44]
  GI50: 79.4 µM (inactive)
[45]
  GI50: 59.7 µM (inactive)
[46]
  GI50: > 100 µM (inactive)
[47]
  GI50: > 100 µM (inactive)

## C/C(=N/NC(=O)c1ccncc1)c1ccc(NC(=O)C(=O)Nn2c(S)nc3ccccc3c2=O)cc1
[1]
  GI50: > 100 µM (inactive)
[48]
  GI50: > 100 µM (inactive)
[2]
  GI50: > 100 µM (inactive)
[3]
  GI50: 59 µM (inactive)
[4]
  GI50: > 100 µM (inactive)
[5]
  GI50: > 100 µM (inactive)
[6]
  GI50: 37.2 µM (inactive)
[8]
  GI50: > 100 µM (inactive)
[9]
  GI50: > 100 µM (inactive)
[10]
  GI50: > 100 µM (inactive)
[11]
  GI50: > 100 µM (inactive)
[12]
  GI50: > 100 µM (inactive)
[13]
  GI50: > 100 µM (inactive)
[15]
  GI50: > 100 µM (inactive)
[16]
  GI50: > 100 µM (inactive)
[17]
  GI50: > 100 µM (inactive)
[18]
  GI50: > 100 µM (inactive)
[19]
  GI50: > 100 µM (inactive)
[49]
  GI50: > 100 µM (inactive)
[20]
  GI50: > 100 µM (inactive)
[21]
  GI50: > 100 µM (inactive)
[22]
  GI50: > 100 µM (inactive)
[23]
  GI50: > 100 µM (inactive)
[24]
  GI50: > 100 µM (inactive)
[25]
  GI50: > 100 µM (inactive)
[26]
  GI50: > 100 µM
[50]
  GI50: > 100 µM (inactive)
[51]
  GI50: > 100 µM (inactive)
[28]
  GI50: > 100 µM (inactive)
[52]
  GI50: > 100 µM (inactive)
[29]
  GI50: > 100 µM (inactive)
[30]
  GI50: > 100 µM (inactive)
[31]
  GI50: > 100 µM (inactive)
[32]
  GI50: > 100 µM (inactive)
[33]
  GI50: > 100 µM (inactive)
[34]
  GI50: > 100 µM (inactive)
[53]
  GI50: 72.8 µM (inactive)
[54]
  GI50: > 100 µM (inactive)
[35]
  GI50: > 100 µM (inactive)
[36]
  GI50: > 100 µM (inactive)
[55]
  GI50: > 100 µM (inactive)
[37]
  GI50: > 100 µM (inactive)
[38]
  GI50: > 100 µM (inactive)
[39]
  GI50: > 100 µM (inactive)
[40]
  GI50: > 100 µM (inactive)
[59]
  GI50: > 100 µM (inactive)
[56]
  GI50: > 100 µM (inactive)
[57]
  GI50: > 100 µM (inactive)
[41]
  GI50: > 100 µM (inactive)
[42]
  GI50: > 100 µM (inactive)
[43]
  GI50: > 100 µM (inactive)
[58]
  GI50: > 100 µM (inactive)
[44]
  GI50: > 100 µM (inactive)
[45]
  GI50: > 100 µM (inactive)
[46]
  GI50: > 100 µM (inactive)
[47]
  GI50: > 100 µM (inactive)
